Test results reported in ChEMBL document CHEMBL1132086, “Total synthesis of an antioxidant isolated from yeast via palladium-catalyzed coupling and its application for related compounds” (Bioorg Med Chem Lett, 1999).

species: Cavia porcellus; assay: Antioxidative activity was evaluated by using the lipid peroxidation of guinea pig liver microsomes; format: functional

| Compound | IC50 |
| --- | --- |
| COc1c2c(cc(O)c1-c1ccccc1)OCO2 | 83 µM |
| COc1c2c(cc(O)c1-c1ccc(C)cc1)OCO2 | 65 µM |
| COc1c2c(cc(O)c1-c1cccs1)OCO2 | 44 µM |

Other lines, results leading:

| IC50 | Compound |
| --- | --- |
| 56 µM | COc1ccc(-c2c(O)cc3c(c2OC)OCO3)cc1 |
| 50 µM | CCCOC(=O)c1cc(O)c(O)c(O)c1 [PROPYL GALLATE] |
| 280 µM | Cc1c(C)c2c(c(C)c1O)CC[C@@](C)(CCC[C@H](C)CCC[C@H](C)CCCC(C)C)O2 [ALPHA-TOCOPHEROL] |
| 98 µM | COc1c2c(cc(O)c1-c1cc3ccccc3o1)OCO2 |
| 107 µM | COc1c2c(cc(O)c1-c1ccc(-c3ccccc3)cc1)OCO2 |
